Data from patent US10154955B2, “Compositions including bauhinia, methods of making and using the same in skin anti-aging and other skin applications” (ACCESS BUSINESS GROUP INTERNATIONAL LLC, priority 2016, dated 2018).
Values after ≈ are worked out from the molar mass of the structure shown. Values joined by “and” are separate entries in the source; they are usually repeats but may differ in a detail not shown here. Equal entries are not always repeated.

Tests used:
[1] = Cell toxicity-CTG in HepG2 cells; type: cell-based; settings: human, FIG. 5
Description: On Day 1 of the procedure, Hep G2 [HEPG2] cells were plated on 96-well cell culture plates. To do so, disk was trypsinized and the cell density was determined. The cell slurry was diluted to the required volume at a density of 625,000 cells/ml. 160 ul/well of the cell slurry was dispensed onto assay plates. (100,000 cells per well). The assay plates were incubated overnight at 37 degrees C., 5% CO2 under humidified conditions. On Day 2, the cells were treated with […] and Hydroquinone or Vitamin C as a reference. 200× compounds were prepared in 100% DMSO. Transfer 5 ul 200× compound was transferred to 95 ul completed medium (MEM with 10% FBS), and mixed 5 times. 20 ul 10× compound solution was transferred onto assay plates. The assay plates were incubated at 37 degrees C., 5% CO2 under humidified conditions.

[2] = system: Hep G2 [HEPG2] cells; experiment: Anti-carbonylation assay (protein carbonyl ELISA after H2O2 treatment); type: cell-based; settings: 3 mM H2O2 4 hr, replicate values
Description: The purpose of this experiment was to test […] on anti-carbonylation assay using Hep G2 [HEPG2] (ATCC#HB-8065) cell line. The carbonylation process is related to protein degeneration and is similar to oxidation and glycation. On Day 1 of the procedure, Hep G2 [HEPG2] cells were plated on 96-well cell culture plates. To do so, disk was trypsinized and the cell density was determined. The cell slurry was diluted to the required volume at a density of 625,000 cells/ml. 160 ul/well of the cell slurry was dispensed onto assay plates. (100,000 cells per well). The assay plates were incubated overnight at 37 degrees C., 5% CO2 under humidified conditions. On Day 2, the cells were treated with […] and Hydroquinone or Vitamin C as a reference. 200× compounds were prepared in 100% DMSO. Transfer 5 ul 200× compound was transferred to 95 ul completed medium (MEM with 10% FBS), and mixed 5 times. 20 ul 10× compound solution was transferred onto assay plates. The assay plates were incubated at 37 degrees C., 5% CO2 under humidified conditions. Day 3 included treatment with H2O2. 30 mM H2O2 solution was prepared and 20 ul/well of H2O2 solution was dispensed onto assay plates (H2O2 final conc. 3 mM). The assay plates were incubated for 4 hr at 37 degrees C., 5% CO2 under humidified conditions. Following the incubation, the cell culture medium was discarded and cells once washed once with PBS. 60 ul PBS was added onto assay plate, frozen at -80° C. Frozen samples were recovered 3 times. […] The liquid supernatant was then transferred to compound plate. 5 ul of each cell lysis was obtained and the protein concentration was tested. The protein concentration was adjusted to 5 μg/ml with PBS and reduced BSA (total protein conc. 10 μg/ml), and mixed 5 times. 100 uL of the 5 ug/ml samples was then transferred onto the 96-well Protein Binding Plate, and incubated in 4° C. overnight. To perform ELISA assay on Day 5, the wells were washed 3 times with 250 μL PBS per well and excess wash solution removed. 100 μL of the 0.04 mg/ml DNPH Working Solution was added and the plates were incubated for 45 minutes at room temperature in the dark. The plates were then washed 5 times with 250 μL of PBS/Ethanol (1:1, v/v) with incubation on an orbital shaker for 5 minutes. Next, the plates were washed 2 times with 250 μL of PBS. 200 μL of Blocking Solution was added per well and the plates were incubated for 2 hours at room temperature on an orbital shaker, and then washed 3 times with 250 μL of 1× Wash Buffer with thorough aspiration between each wash. 100 μL anti-DNP antibody was added and the plates were incubated for 1 hour at room temperature on an orbital shaker. Next, the strip wells were washed 3 times (1× wash buffer), 100 μL of the diluted HRP conjugated secondary antibody was added to all wells and plates were incubated for 1 hour at room temperature on an orbital shaker. The strip wells were then washed 5 times (1× wash buffer). The Substrate Solution was warmed to room temperature and 100 μL of Substrate Solution was added to each well, 5 20 min. The enzyme reaction was stopped by adding 100 μL of Stop Solution to each well. […] Data Process included: • Signal=Sample 450 nm Signal-10 ug/ml Reduced BSA Signal • Protein Carbonyl Conc. (PCC)=(Signal-Y intercept)/Slope • % Inh=(Max PCC-Sample PCC)/(Max PCC-Min PCC)×100 • Max PCC was obtained from the cells treated with H2O2 • Min PCC was obtained from none treated cells • IC50 was calculated using GraphPad Prism V5.0 software

Q: With `Oc1ccc(O)cc1` [Hydroquinone] as the molecule, how does the IC50 [1] read?
A: The IC50 was 8.44 µg/mL (≈ 76.7 µM).

Q: For `O=C1O[C@H]([C@@H](O)CO)C(O)=C1O` [Vit. C, Vitamin C], which Carbonylation inhibition ([2]; 33 ug/ml) is on record?
A: Its Carbonylation inhibition is 28.6%.

Q: And the Carbonylation inhibition ([2]; 100 ug/ml)?
A: The Carbonylation inhibition was 64.6%.

Q: And the Carbonylation inhibition ([2]; 300 ug/ml)?
A: The Carbonylation inhibition was 49.1% and 76.2%.

Q: And the inhibition at 33 µg/mL ([2]; Homo sapiens, HepG2, 4 h, 33 ug/ml)?
A: Its inhibition at 33 µg/mL is 33.5%.

Q: And the inhibition at 100 µg/mL ([2]; Homo sapiens, HepG2, 4 h, 100 ug/ml)?
A: The inhibition at 100 µg/mL was 46.1%.
